Experimental data as given in patent publication US12398101B2, “Herbicidal 2-azaspiro[3-5]nonane compounds” (SYNGENTA CROP PROTECTION AG, priority 2018, dated 2025).

Tests used:
Format in all cases: in vivo
Conditions in all cases: 250 g/h, evaluated after 13 days
Avena fatua (AVEFA) [1] = assay: Glasshouse herbicide test, post-emergence application
Protocol: (§1) Seeds of a variety of test species are sown in standard soil in pots (Lolium perenne (LOLPE), Setaria faberi (SETFA), Echinochloa crus-galli (ECHCG), Avena fatua (AVEFA)). After cultivation for one day (pre-emergence) or after 8 days cultivation (post-emergence) under controlled conditions in a glasshouse (at 24/16° C., day/night; 14 hours light; 65% humidity), the plants are sprayed with an aqueous spray solution derived from the formulation of the technical active ingredient in acetone/water (50:50) solution containing 0.5% Tween 20 (polyoxyethelyene sorbitan monolaurate, CAS RN 9005-64-5). Compounds are applied at 250 g/h. The test plants are then grown in a glasshouse under controlled conditions in a glasshouse (at 24/16° C., day/night; 14 hours light; 65% humidity) and watered twice daily. After 13 days for pre and post-emergence, the test is evaluated for the percentage damage caused to the plant. The biological activities are shown in the following table on a five point scale (5=80-100%; 4=60-79%; 3=40-59%; 2=20-39%; 1=0-19%).

[2] = test system: Echinochloa crus-galli (ECHCG); assay: as above
Protocol: as §1

Lolium perenne (LOLPE) [3] = assay: as above
Protocol: as §1

Setaria faberi (SETFA) [4] = assay: as above
Protocol: as §1

Avena fatua (AVEFA) [5] = assay: Glasshouse herbicide test, pre-emergence application
Protocol: as §1

[6] = test system: Echinochloa crus-galli (ECHCG); assay: as above
Protocol: as §1

Lolium perenne (LOLPE) [7] = assay: as above
Protocol: as §1

Setaria faberi (SETFA) [8] = assay: as above
Protocol: as §1

Compound | percentage damage caused to the plant, five point scale, AVEFA (Avena fatua (AVEFA) [1]) | percentage damage caused to the plant, five point scale, ECHCG [2] | percentage damage caused to the plant, five point scale, LOLPE (Lolium perenne (LOLPE) [3]) | percentage damage caused to the plant, five point scale, SETFA (Setaria faberi (SETFA) [4]) | percentage damage caused to the plant, five point scale, AVEFA (Avena fatua (AVEFA) [5]) | percentage damage caused to the plant, five point scale, ECHCG [6] | percentage damage caused to the plant, five point scale, LOLPE (Lolium perenne (LOLPE) [7]) | percentage damage caused to the plant, five point scale, SETFA (Setaria faberi (SETFA) [8])
CC#Cc1cc(C)c(C2C(=O)CC3(CC2=O)CN(C(=O)c2ccccn2)C3)c(C)c1 [Compound 1.004] | 5 (5=80-100%) | 5 (5=80-100%) | 5 (5=80-100%) | 5 (5=80-100%) | 5 (5=80-100%) | 5 (5=80-100%) | 5 (5=80-100%) | 5 (5=80-100%)
CC#Cc1cc(C)c(C2C(=O)CC3(CC2=O)CN(C(=O)NC(=O)C(C)(C)C)C3)c(OC)c1 [Compound 1.019] | 5 (5=80-100%) | 4 (4=60-79%) | 5 (5=80-100%) | 5 (5=80-100%) | 4 (4=60-79%) | 5 (5=80-100%) | 4 (4=60-79%) | 4 (4=60-79%)
CC#Cc1cc(C)c(C2C(=O)CC3(CC2=O)CN(C(=O)C2CC2)C3)c(C)c1 [Compound 1.008, 2-(cyclopropanecarbonyl)-7-(2,6-dimethyl-4-prop-1-ynyl-phenyl)-2-azaspiro[3.5]nonane-6,8-dione] | 5 (5=80-100%) | 5 (5=80-100%) | 5 (5=80-100%) | 5 (5=80-100%) | 5 (5=80-100%) | 5 (5=80-100%) | 5 (5=80-100%) | 5 (5=80-100%)
CC#Cc1cc(Cl)c(C2C(=O)CC3(CC2=O)CN(C(=O)C(F)F)C3)c(OC)c1 [Compound 1.193] | 5 (5=80-100%) | 5 (5=80-100%) | 5 (5=80-100%) | 5 (5=80-100%) | 5 (5=80-100%) | 5 (5=80-100%) | 5 (5=80-100%) | 5 (5=80-100%)
CC#Cc1cc(C)c(C2C(=O)CC3(CC2=O)CN(C(=O)C(F)F)C3)c(OC)c1 [Compound 1.024] | 5 (5=80-100%) | 5 (5=80-100%) | 5 (5=80-100%) | 5 (5=80-100%) | 5 (5=80-100%) | 5 (5=80-100%) | 5 (5=80-100%) | 5 (5=80-100%)
CC#Cc1cc(Cl)c(C2C(=O)CC3(CC2=O)CN(C(=O)C2CC2)C3)c(OC)c1 [Compound 1.196] | 5 (5=80-100%) | 5 (5=80-100%) | 5 (5=80-100%) | 5 (5=80-100%) | 5 (5=80-100%) | 5 (5=80-100%) | 5 (5=80-100%) | 5 (5=80-100%)
CC#Cc1cc(Cl)c(C2C(=O)CC3(CC2=O)CN(C(=O)C(C)(C)C)C3)c(OC)c1 [Compound 1.202] | 5 (5=80-100%) | 5 (5=80-100%) | 5 (5=80-100%) | 5 (5=80-100%) | 5 (5=80-100%) | 5 (5=80-100%) | 5 (5=80-100%) | 5 (5=80-100%)
